The assay concerns the target SARS-CoV 3CL^pro (Severe acute respiratory syndrome coronavirus, UniProt P0C6X7). In kind it is biochemical.

Four compounds from PMC7127101 (Bioorganic & Medicinal Chemistry Letters, 2010) can be followed below.

As for `CC1=CC[C@]2(C)CC[C@]3(C)C4=CC=C5C(=CC(=O)C(O)=C5C)[C@]4(C)CC[C@@]3(C)[C@@H]2C1` [Compound 4, iguesterin], the Inhibition type entry is on record as “Competitive (0.8 ± 0.2)”, the V max came to 44.4 ± 6.2 intensity min^−1 and the “fold smaller IC50 value compared with that of reference compounds” value worked out at 10 fold. As to `COC(=O)[C@]1(C)CC[C@]2(C)CC[C@]3(C)C4=CC=C5C(=CC(=O)C(O)=C5C)[C@]4(C)CC[C@@]3(C)[C@@H]2C1` [Compound 2, pristimerin], the Inhibition type result is given as “Competitive (3.1 ± 0.0)”. As to `CC1=C(O)C(=O)C=C2C1=CC=C1[C@@]2(C)CC[C@@]2(C)[C@@H]3C[C@@H](C)C(=O)C[C@]3(C)CC[C@]12C` [Compound 3, tingenone], the Inhibition type entry is “Competitive (4.0 ± 0.1)”.

For the compound `CC1=C(O)C(=O)C=C2C1=CC=C1[C@@]2(C)CC[C@@]2(C)[C@@H]3C[C@](C)(C(=O)O)CC[C@]3(C)CC[C@]12C` [Compound 1, celastrol], the Inhibition type result is listed as “Competitive (4.2 ± 0.6)”.
